From patent US11993603B2, “Preparation for 6-amino-1H-pyrazolo[3,4-d]pyrimidine-based JAK kinase inhibitor and application thereof” (INSTITUTE OF MATERIA MEDICA, CHINESE ACADEMY OF MEDICAL …, priority 2018, dated 2024)

Legend:
Format in all cases: biochemical
JAK-2 = JAK-2 (Homo sapiens (Human), UniProt O60674); experiment: Inhibition test on JAK-2 kinase (FRET peptide substrate assay); conditions: kinase 1 nM, 1 h at room temperature
Description: (§1) Experiment Example (Inhibition Tests on JAK-1, JAK-2 and JAK-3 Kinases)
(§2) To evaluate the inhibitory activity of the compound on JAK-1, JAK-2 and JAK-3 kinases
(§3) A proteolytic enzyme is coupled to exert different proteolysis on a specific phosphorylated and nonphosphorylated peptide substrate based on fluorescence resonance energy transfer (FRET). Both ends of the peptide substrate were respectively labeled FRET energy donor coumarin and energy receptor fluorescein, and at this time, the donor was stimulated to produce energy transfer when the donor is close to a receptor.
(§4) In Kinase Reaction, JAK-1, JAK-2 or JAK-3 may transfer γ-phosphoric acid in ATP onto a single tyrosine residue of a peptide substrate; and there were JAK-1, JAK-2 or JAK-3 inhibitors in the system, γ-phosphoric acid groups on ATP would be not transferred onto the peptide substrate, thus resulting in the failure of phosphorylation. An evaluation experiment was designed based on the principle, a peptide substrate was designed with kinase phosphorylation sites, namely, protein restriction enzyme cutting sites; and both ends thereof were respectively connected with 2 fluorophores as a donor and a receptor respectively; if the kinase kept activity in the system, a γ-phosphonic acid group was transferred onto restriction enzyme cutting sites of the substrate, so that the γ-phosphonic acid group would not be cut and separated into two segments by a protease; moreover, under the stimulation of a laser having a specific wavelength, energy from a segment of fluorescence would be transferred onto another end of fluorophores, thus emitting energy. Otherwise, after kinase activity was inhibited, phosphoric acid groups would be not transferred, and restriction enzyme cutting sites in the substrate would be cut by a […] in the system to separate the substrate into two segments, thereby no energy transfer of fluorescence occurred. Based on this, the activity of the kinase was evaluated.
(§5) In this experiment, a 10 μl kinase reaction system was selected, firstly, 2.5 μl kinase (concentration: 1 nM), 2.5 μl peptide substrate (concentration: 2 μM), 2.5 μl ATP (concentration: […]) and 2.5 μl compound were added to each system for reaction for 1 h at room temperature, and then a 5 μl test solution was added for reaction for 1 h at room temperature, then a 5 μl stop buffer was added. A microplate reader (Synergy H1, BioTek, USA) was used to measure fluorescence intensity (emission intensity of coumarin at 445 nm and emission intensity of fluorescein at 520 nm were detected under the stimulation of 400 nm). The inhibitory activity of each compound was calculated, where it was believed that fluorescence intensity of a well not containing the kinase was 100% inhibited.

JAK-1 = JAK-1 (Homo sapiens (Human), UniProt P23458); experiment: Inhibition test on JAK-1 kinase (FRET peptide substrate assay); conditions: kinase 1 nM, 1 h at room temperature
Sequence of JAK-1 (P23458 whole entry): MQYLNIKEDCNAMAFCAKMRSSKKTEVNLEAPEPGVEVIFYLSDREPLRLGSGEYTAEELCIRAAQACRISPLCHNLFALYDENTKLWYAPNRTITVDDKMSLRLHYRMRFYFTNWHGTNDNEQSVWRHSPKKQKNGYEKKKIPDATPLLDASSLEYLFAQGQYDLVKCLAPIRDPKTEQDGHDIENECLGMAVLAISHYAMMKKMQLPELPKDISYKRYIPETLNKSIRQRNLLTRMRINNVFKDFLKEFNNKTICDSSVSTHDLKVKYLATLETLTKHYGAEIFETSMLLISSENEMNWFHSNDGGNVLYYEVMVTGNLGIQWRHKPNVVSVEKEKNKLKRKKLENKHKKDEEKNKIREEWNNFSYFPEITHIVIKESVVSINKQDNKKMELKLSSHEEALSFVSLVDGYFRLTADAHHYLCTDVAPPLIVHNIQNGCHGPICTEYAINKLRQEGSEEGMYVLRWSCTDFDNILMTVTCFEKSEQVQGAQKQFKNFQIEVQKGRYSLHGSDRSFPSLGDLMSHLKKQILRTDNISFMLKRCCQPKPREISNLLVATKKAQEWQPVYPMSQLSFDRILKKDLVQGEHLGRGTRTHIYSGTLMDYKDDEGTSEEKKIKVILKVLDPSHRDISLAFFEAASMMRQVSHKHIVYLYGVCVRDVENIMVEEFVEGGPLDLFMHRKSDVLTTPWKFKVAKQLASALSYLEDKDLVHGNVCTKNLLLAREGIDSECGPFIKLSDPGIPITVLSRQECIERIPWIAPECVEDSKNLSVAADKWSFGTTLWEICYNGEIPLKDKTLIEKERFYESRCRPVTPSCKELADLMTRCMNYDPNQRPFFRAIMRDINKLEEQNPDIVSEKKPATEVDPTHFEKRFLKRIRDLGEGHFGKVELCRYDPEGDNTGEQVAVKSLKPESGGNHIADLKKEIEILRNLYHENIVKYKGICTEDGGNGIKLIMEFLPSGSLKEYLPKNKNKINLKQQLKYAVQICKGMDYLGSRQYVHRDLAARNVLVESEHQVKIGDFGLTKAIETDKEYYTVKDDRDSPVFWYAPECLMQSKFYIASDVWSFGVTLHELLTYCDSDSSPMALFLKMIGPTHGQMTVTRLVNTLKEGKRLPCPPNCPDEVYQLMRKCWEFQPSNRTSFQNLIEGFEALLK
Description: as §1, §2, §3, §4, §5

JAK-3 = JAK-3 (Homo sapiens (Human), UniProt P52333); experiment: Inhibition test on JAK-3 kinase (FRET peptide substrate assay); conditions: kinase 1 nM, 1 h at room temperature; read-out: IC50 (nM) JAK-3
Sequence of JAK-3 (P52333 whole entry): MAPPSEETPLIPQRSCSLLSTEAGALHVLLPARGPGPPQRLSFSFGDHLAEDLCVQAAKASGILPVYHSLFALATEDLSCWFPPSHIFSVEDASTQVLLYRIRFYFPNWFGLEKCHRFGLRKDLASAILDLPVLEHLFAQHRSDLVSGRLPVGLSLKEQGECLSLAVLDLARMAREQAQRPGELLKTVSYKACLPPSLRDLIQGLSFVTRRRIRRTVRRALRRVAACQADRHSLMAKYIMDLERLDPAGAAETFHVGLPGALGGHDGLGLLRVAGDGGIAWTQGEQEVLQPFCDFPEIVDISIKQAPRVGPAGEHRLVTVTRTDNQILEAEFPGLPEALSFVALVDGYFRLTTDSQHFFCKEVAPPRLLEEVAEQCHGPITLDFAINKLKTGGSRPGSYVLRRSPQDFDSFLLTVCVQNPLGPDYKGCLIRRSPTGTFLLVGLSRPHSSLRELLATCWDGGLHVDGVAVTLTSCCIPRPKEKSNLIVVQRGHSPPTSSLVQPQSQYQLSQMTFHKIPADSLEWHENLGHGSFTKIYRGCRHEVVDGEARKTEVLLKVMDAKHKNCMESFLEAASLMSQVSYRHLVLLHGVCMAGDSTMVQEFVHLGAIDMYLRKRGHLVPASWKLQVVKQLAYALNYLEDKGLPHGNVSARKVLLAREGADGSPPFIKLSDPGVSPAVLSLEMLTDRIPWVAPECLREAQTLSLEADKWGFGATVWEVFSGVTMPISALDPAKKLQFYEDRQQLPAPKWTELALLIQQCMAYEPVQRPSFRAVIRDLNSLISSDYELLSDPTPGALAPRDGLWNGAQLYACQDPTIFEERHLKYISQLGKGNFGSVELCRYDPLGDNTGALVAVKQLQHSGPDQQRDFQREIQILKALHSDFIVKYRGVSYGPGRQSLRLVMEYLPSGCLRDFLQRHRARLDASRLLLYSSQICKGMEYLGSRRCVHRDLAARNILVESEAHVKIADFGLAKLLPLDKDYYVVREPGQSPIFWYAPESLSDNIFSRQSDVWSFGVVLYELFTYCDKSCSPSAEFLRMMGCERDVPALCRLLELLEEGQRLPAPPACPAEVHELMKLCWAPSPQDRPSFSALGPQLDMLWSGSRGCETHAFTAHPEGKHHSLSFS
Description: as §1, §2, §3, §4, §5

Sequence of JAK-2 (O60674 whole entry): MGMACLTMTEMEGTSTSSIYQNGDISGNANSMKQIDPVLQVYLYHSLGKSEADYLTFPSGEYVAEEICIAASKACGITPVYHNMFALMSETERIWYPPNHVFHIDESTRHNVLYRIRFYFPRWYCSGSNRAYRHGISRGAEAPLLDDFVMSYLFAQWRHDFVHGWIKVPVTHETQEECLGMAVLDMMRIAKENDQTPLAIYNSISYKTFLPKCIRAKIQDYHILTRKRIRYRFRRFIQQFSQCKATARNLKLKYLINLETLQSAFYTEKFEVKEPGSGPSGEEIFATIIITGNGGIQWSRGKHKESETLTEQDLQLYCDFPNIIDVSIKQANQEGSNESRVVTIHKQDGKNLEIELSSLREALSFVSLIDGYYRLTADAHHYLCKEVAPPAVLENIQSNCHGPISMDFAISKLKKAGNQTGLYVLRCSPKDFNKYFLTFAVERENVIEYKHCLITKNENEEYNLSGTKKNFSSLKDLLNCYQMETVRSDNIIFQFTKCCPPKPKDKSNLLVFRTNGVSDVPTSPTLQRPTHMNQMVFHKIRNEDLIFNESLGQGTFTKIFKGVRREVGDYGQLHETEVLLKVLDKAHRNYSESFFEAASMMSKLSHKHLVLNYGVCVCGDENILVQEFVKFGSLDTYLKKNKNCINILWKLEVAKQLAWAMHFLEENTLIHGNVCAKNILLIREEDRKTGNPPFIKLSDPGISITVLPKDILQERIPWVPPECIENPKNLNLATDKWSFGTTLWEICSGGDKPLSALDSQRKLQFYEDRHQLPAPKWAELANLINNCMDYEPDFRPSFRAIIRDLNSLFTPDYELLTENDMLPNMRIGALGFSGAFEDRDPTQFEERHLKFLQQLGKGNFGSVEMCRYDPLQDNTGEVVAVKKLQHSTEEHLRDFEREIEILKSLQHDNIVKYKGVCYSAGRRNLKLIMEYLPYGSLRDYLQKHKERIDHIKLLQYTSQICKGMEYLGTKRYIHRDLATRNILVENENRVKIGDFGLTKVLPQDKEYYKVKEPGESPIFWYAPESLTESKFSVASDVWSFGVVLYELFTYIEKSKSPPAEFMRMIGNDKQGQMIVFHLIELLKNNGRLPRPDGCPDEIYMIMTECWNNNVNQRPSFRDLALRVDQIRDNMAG

IC50 (JAK-2) [nM] | IC50 (JAK-1) [nM] | IC50 (JAK-3) [nM] | SMILES
893 | 960 | 2 | C/C=C/C(=O)Nc1ccc(Cn2ncc3cnc(Nc4ccc(N5CCOCC5)cc4)nc32)cc1 [Example 27, N-(4-((6-((4-morpholinylphenyl)amino)-1H-pyrazolo[3,4-d]pyrimidin-1-yl)methyl)phenyl)but-2-enamide]
790 | 4090 | 2.3 | C/C=C/C(=O)Nc1ccc(Cn2ncc3cnc(Nc4ccc(N5CCN(C)CC5)cc4)nc32)cc1 [Example 28, N-(4-((6-((4-(4-methylpiperazin-1-yl)phenyl)amino)-1H-pyrazolo[3,4-d]pyrimidin-1-yl)methyl)phenyl)but-2-enamide]
